# Data from article PMC8421406, “C9orf72-derived arginine-rich poly-dipeptides impede phase modifiers” (Nature Communications, 2021).
# Where no end group is shown, it is not given here. HA = HA epitope tag
# Legend:
# [1] = test system: Kapβ2 / MBP:FUS-NLS complex; experiment: Competitive pull-down: release of MBP:FUS-NLS from GST:Kapβ2; assay type: binding; conditions: MBP:FUS-NLS (501–526) : GST:Kapβ2 1:1, PR20:HA competitor; repeated twice
# Excerpt: Unbound proteins were washed three times with the buffer.
# [2] = test system: GFP:FUS-LC:NLS / mCh:FUS-LC hydrogel; experiment: Hydrogel binding assay, GFP:FUS-LC:NLS on mCh:FUS-LC hydrogel; assay type: biochemical; conditions: Kapβ2 0.1-1.0 µM; PR20 with 1.0 µM Kapβ2
# Experimental: The experiment was independently repeated three times with similar results. Here, 10 μm scale bars are shown in the image. e Graphical description of hydrogel binding assay. Hydrogels of mCh:LC-domain accumulate GFP:LC-domain as it co-polymerizes. f Hydrogel binding assay for FUS-LC in the absence and presence of Kapβ2. mCh:FUS-LC (lower images) were incubated with 1.0 µM of GFP (left panel) or 1.0 µM of GFP:FUS-LC:NLS (right panel) in the presence of different concentrations of Kapβ2 (left to right: 0.1, 0.3, and 1.0 µM). g Quantitative analysis of Fig. 1f. Relative intensity of GFP signals is shown as the mean of three independent experiments ± SD, analyzed by one-way ANOVA followed by Dunnett’s multiple comparison test (**P < 0.01, ***P < 0.001). h Hydrogel binding assay for FUS-LC in the absence and presence of Kapβ2 and/or PR20. Hydrogel droplets of mCh:FUS-LC (lower images) were incubated with 1.0 µM of GFP (left panel) or GFP:FUS-LC:NLS (right panel). GFP:FUS-LC:NLS containing Kapβ2 (1.0 µM) was challenged for homotypic polymer extension in the absence or presence of different concentration of PR20. i Quantitative analysis of Fig. 1h. Relative intensity of GFP signals is shown as the mean of three independent experiments ± SD, analyzed by one-way ANOVA followed by Dunnett’s multiple comparison test (**P < 0.01). Source data are provided as a Source Data file. […]
# [3] = test system: MBP:FUS (full-length FUS droplets) / Kapβ2; experiment: Turbidity assay of FUS droplet formation (OD 395 nm); assay type: biochemical; conditions: equimolar poly-dipeptide and Kapβ2 (8 μM)
# [4] = test system: GFP:cNLS:TDP43-LC / mCh:TDP43-LC hydrogel; experiment: Hydrogel binding assay, TDP43-LC with Impα/β1; assay type: biochemical; conditions: 1.0 µM GFP:cNLS:TDP43-LC, Impα/β1 1.0 µM/1.0 µM, PR20 1.0 µM
# Excerpt: Expression plasmids for recombinant proteins (GFP/mCherry fusion LC-domain of FUS (residue 2–214, GFP/mCh:FUS-LC) and GFP/mCherry fusion LC-domain of hnRNPA2 (residue 181–341, GFP/mCh:hnRNPA2-LC)) were obtained from the Steven L. McKnight Laboratory. Expression plasmid for GFP:FUS-LC fusion NLS (residue 501–526, GFP:FUS-LC:NLS), mCh fusion LC-domain of TDP43 (residue 262–414, mCh:TDP43-LC), and GFP-tagged cNLS (residue 78–99) fusion TDP43-LC (GFP:cNLS:TDP43-LC) were constructed using In-Fusion HD Cloning Kit (Takara Bio, Inc.). GFP/mCh:FUS-LC, GFP:FUS-LC:NLS, and GFP/mCh:hnRNPA2-LC were expressed in E. coli BL21(DE3) cells with 0.5 mM IPTG at 20 °C overnight and purified by Ni-NTA Agarose (FUJIFILM Wako Pure Chemical Corporation), as described in a previous study. GFP:cNLS:TDP43-LC were expressed with 1.0 mM IPTG at 37 °C for 3 h and mCh:TDP43-LC were expressed with 0.5 mM IPTG at 16 °C overnight. GFP:cNLS:TDP43-LC and mCh:TDP43-LC were purified by Ni-NTA as described in a previous study[48] with some modifications. […] Relative intensity of GFP signals across the hydrogel droplets were measured in triplicate by using the profile plot mode in ImageJ. […]
substance,measurement,setting,value
"PR20: twenty repeats of proline:arginine with an HA epitope tag at the C terminus, synthesized by SCRUM, Inc. (PRPRPRPRPRPRPRPRPRPRPRPRPRPRPRPRPRPRPRPR-{HA})",Release of MBP:FUS-NLS from Kapβ2,[1],release of MBP:FUS-NLS from Kapβ2
same,Effect on hydrogel binding of GFP:FUS-LC:NLS,[2],inhibited the ability of Kapβ2 from blocking the hydrogel binding of GFP:FUS-LC:NLS
same,Inhibition of the ability of Kapβ2 to melt FUS droplets (turbidity),[3],inhibited the ability of Kapβ2
same,Effect on ability of Impα/β1 to modify phase transition of TDP43-LC,[4],inhibited the ability of other NIRs Impα/β1 in modifying the phase transition of LC-domain of TDP43
